Here are results for 15 compounds from PubChem BioAssay (NCI).

“And” between values parts separate entries of the source, which are not always exact repeats. Equal values may be shown once.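 Five concentrations, 48 hours, 96-well plates. GI50: concentration for 50% inhibition of growth. The concentration for full growth arrest is given as TGI.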

What all share (assay): NCI anticancer screen, dose series, 48 h
The test system of assay [1] is RPMI-8226 leukemia.
The test system of assay [2] is NCI-H226 lung.
The test system of assay [3] is SF-268 CNS.
In assay [4] the test system is A549 NSCLC.
The subject of assay [5] is SK-MEL-28 melanoma.
Assay [6] deals with SK-MEL-2 melanoma.
In assay [7] the test system is HL-60(TB) leukemia.
The test system of assay [8] is HOP-62 NSCLC.
Assay [9] deals with DU-145 prostate.
Assay [10] concerns HS 578T breast.

Consider `CC(=O)OC12C(C)=C(C)C(=O)N1c1ccccc1N2C(C)=O` (stereo unspecified), for which the TGI in assay [1], in assay [2], in assay [3], in assay [4], in assay [5] and in assay [6] was above 100 µM throughout. For the same compound, the TGI in [7] and in [8] was above 100 µM in each case.

As to `COc1ccc(CC(=O)NCCc2ccc(OC)c(OC)c2OC)cc1`, the TGI in [1], in [2], in [3], in assay [4], in [5] and in assay [6] was above 100 µM throughout. In addition, in assay [8], the TGI was above 100 µM.

For `O=C1c2ccccc2-c2c3c(cc4ccnc1c24)OCO3`, the TGI in assay [1] was 29.3 µM and 54.4 µM; in [2] it was 26.2 µM and 24.4 µM; in assay [3], 47.1 µM and > 100 µM; in assay [4], 14.3 µM and 17.4 µM; in assay [5] it was 30.7 µM and > 100 µM; in [6], 19.3 µM and 28.5 µM. The TGI amounted to 15.6 µM in assay [7] and 21.1 µM in assay [8].

Take `CC(Oc1ccc2c(-c3ccc(Cl)cc3)cc(=O)oc2c1)C(=O)O` (stereo unspecified): the TGI in assay [2], in assay [3], in assay [4], in assay [5], in [7] and in assay [8] was above 100 µM in each case.

For the compound `CC(C)(C)C(=O)N1C(C(=O)O)Cc2ccccc2[C@@H]1Cc1ccccc1` (stereo partly specified), the TGI in assay [1], in [2], in [3], in assay [4], in [5] and in assay [6] was above 100 µM throughout. Moreover, the TGI in assay [7] and in assay [8] was above 100 µM each time.

For the compound `Nc1ncc(-c2ccc3ncnc(Nc4cccc(Cl)c4)c3c2)cn1`, the GI50 in assay [1] was 0.206 µM; in [2], 0.294 µM; in [3], 0.294 µM and 1.95 µM; in assay [4], 1.7 µM; in assay [9], 0.809 µM; in assay [7] it was 0.525 µM. Besides, the GI50 in [8] is 0.388 µM and 2.98 µM. Moreover, the TGI in [3], in assay [4], in assay [9] and in [8] was above 100 µM throughout.

On to `CCN(CC)CCN(CC)CC.CCN(CC)CCN(CC)CC.[Cu+2].[Cu+2].[O-][Cl+3]([O-])([O-])[O-].[OH3+].[OH3+]`, for which the GI50 in assay [1] was 83.2 µM; in assay [3] it was 23.9 µM; in assay [4], 30.2 µM; in assay [5] it was 22.1 µM; in assay [7] it was 30.8 µM; in assay [8], 22.5 µM. Besides, the TGI was above 100 µM in assay [1]; 50.3 µM in [3]; above 100 µM in assay [4]; 45.5 µM in assay [5]; above 100 µM in assay [7]; 40.3 µM in assay [8].

`O=[N+]([O-])c1nccn1CC(O)c1ccccc1` (stereo unspecified): the TGI in assay [1], in assay [2], in [3], in assay [4], in assay [5] and in assay [6] was above 100 µM in each case. In addition, the TGI in [7] and in [8] was above 100 µM in each case.

Regarding `CCOC(=O)C1(C(=O)OCC)C(C(C)(C)C)=C(C)c2ccccc21`, the TGI in assay [1] is 55.8 µM; in [2] it was 28.5 µM; in assay [3], 39.1 µM; in [4] it was above 100 µM; in assay [5], 26.2 µM; in assay [6], 37.6 µM. For the same compound, the TGI in assay [7] was 40.9 µM; in assay [8], 36.3 µM.

On to `O=C1Nc2c(Cl)cc(Cl)cc2/C1=N/N=C/c1ccco1`, for which the TGI was 59.2 µM in assay [2]; above 100 µM in [4]; above 100 µM in assay [5]; above 100 µM in assay [10]; 57.1 µM in assay [6]; above 100 µM in assay [7]. The compound also showed a TGI in [8] above 100 µM.

Regarding `CC(C)(C)C1=CC(=N/N=c2\scc(-c3ccccc3)n2-c2ccccc2)C=C(C(C)(C)C)C1=O`, the TGI in assay [1], in [2], in assay [3], in assay [4], in assay [5] and in [6] was above 100 µM throughout. Also, the TGI in [7] and in [8] was above 100 µM each time.

Consider `O=S(=O)(N=C1C(Cl)=C(Cl)C(=NS(=O)(=O)c2ccccc2)C(Cl)=C1Cl)c1ccccc1`, for which the GI50 in assay [1] is 23.9 µM; in [2] it was 21.6 µM; in assay [3] it was 16 µM; in [4] it was 32.3 µM; in assay [5], 20.6 µM; in assay [9], 18.5 µM. In addition, the GI50 is 27.5 µM in assay [6], 16.4 µM in [7] and 27.5 µM in [8]. Further, the TGI in assay [1] is above 100 µM; in assay [2], 56.2 µM; in [3], 42.2 µM; in [4], above 100 µM; in [5], 78.1 µM; in assay [9], 60.9 µM. In addition, the TGI in assay [6] is above 100 µM; in [7], above 100 µM; in [8], 80.3 µM.

With `COc1ccc(/C=C/c2cc(OC)c(OC(C)=O)c(OC)c2)cc1`, the TGI was above 100 µM in [1]; 96.6 µM in [2]; above 100 µM in [3]; above 100 µM in [4]; 25.3 µM in assay [5]; above 100 µM in assay [6]. In addition, in [8], the TGI was 73.7 µM.

Consider `O=C(CC1(O)C(=O)Nc2c(Cl)cc(Cl)cc21)c1ccccc1` (stereo unspecified), for which the TGI in assay [1], in assay [2], in [3], in assay [4], in [5] and in [6] was above 100 µM throughout. In assay [7], this compound displayed a TGI above 100 µM.

Regarding `O=C(C[n+]1ccccc1)N/N=C(/CCC(=O)N(Cc1ccccc1)Cc1ccccc1)CC(=O)c1ccccc1`, the TGI in [1], in assay [2], in assay [3], in assay [4], in assay [5] and in [6] was above 100 µM each time. Further, the TGI in assay [7] and in assay [8] was above 100 µM throughout.
